This assay deals with Cdk9/cyclinT1 (Homo sapiens (Human), UniProt P50750). The assay is described as follows: Cdk9/CyclinT1 IMAP Protocol (fluorescence polarization kinase assay). To be noted: Table 2; generated using one of the two Cdk9/cyclinT1 assays (IMAP or Alpha Screen), not specified which; unit inferred. It counts as biochemical. A digest of the protocol:
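Reaction used 4 nM Cdk9/cyclinT1, 100 nM 5TAMRA-cdk7tide peptide and 6 uM ATP in 100 mM Tris pH 7.2 with MgCl2, 0.01% Tween-20, 1 mM DTT and 2.5% DMSO, running 4.5 h. Phosphopeptide was captured by IMAP binding reagent for >1 h, then read by fluorescence polarization (ex 531/em 595 nm).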
In general terms: Polarisation of emitted light reports the rotation of a fluorescent probe.
Sequence of Cdk9/cyclinT1 (P50750 whole entry): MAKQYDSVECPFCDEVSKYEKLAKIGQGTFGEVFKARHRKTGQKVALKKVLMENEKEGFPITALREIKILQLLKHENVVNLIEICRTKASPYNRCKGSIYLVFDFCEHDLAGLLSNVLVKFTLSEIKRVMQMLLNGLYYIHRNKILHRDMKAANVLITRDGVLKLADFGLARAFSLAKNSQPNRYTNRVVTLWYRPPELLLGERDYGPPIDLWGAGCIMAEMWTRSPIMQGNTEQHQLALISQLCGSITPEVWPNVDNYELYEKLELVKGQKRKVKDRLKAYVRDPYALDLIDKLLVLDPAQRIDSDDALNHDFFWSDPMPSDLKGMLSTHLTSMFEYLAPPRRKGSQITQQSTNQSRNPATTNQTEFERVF
Sequence of Cdk9/cyclinT1 (O60563 whole entry partner): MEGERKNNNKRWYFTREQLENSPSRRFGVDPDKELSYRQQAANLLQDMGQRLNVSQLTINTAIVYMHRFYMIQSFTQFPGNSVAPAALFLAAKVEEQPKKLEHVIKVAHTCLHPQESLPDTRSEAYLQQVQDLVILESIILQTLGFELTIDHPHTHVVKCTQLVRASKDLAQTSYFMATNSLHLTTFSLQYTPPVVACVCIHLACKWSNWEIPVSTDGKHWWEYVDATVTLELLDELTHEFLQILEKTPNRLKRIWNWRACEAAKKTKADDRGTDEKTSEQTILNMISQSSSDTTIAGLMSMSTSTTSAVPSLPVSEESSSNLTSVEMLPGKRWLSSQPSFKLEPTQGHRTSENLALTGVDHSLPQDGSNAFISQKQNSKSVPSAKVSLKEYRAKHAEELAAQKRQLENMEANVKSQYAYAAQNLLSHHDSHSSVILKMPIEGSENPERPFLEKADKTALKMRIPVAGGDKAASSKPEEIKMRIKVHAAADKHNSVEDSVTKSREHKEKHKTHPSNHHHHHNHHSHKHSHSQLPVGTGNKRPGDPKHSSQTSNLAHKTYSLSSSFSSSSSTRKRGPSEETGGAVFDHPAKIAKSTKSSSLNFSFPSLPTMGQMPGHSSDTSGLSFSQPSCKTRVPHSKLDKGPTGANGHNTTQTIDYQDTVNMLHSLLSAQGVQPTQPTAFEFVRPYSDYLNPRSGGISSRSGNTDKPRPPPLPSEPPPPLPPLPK
The term IC50 denotes the concentration that inhibits the measured activity by half. Compound `Nc1ncc(-c2cc(N[C@H]3CC[C@H](O)CC3)ncc2Cl)nc1NCC1CCOCC1` [Compound 227] returned a half-inhibitory concentration (IC50) of 25.9 nM.
To `N[C@H]1CC[C@H](Nc2cc(-c3cncc(NCC4CCCOC4)n3)c(Cl)cn2)CC1` (stereo partly shown) [Compound 228] belongs 7.95 nM.
To `O[C@H]1CC[C@H](Nc2cc(-c3cncc(NCC4CCCOC4)n3)c(Cl)cn2)CC1` (stereo partly shown) [Compound 229] belongs 7.95 nM; to `Cc1ncc(-c2cc(N[C@H]3CC[C@H](N)CC3)ncc2Cl)nc1NCC1CCOCC1` [Compound 231, trans-N1-(5-chloro-4-(5-methyl-6-((tetrahydro-2H-pyran-4-yl)methyl)aminopyrazin-2-yl)pyridin-2-yl)cyclohexane-1,4-diamine], 14.9 nM; to `N[C@H]1CC[C@H](Nc2cc(-c3nc(NCC4CCOCC4)cnc3Cl)ccn2)CC1` [Compound 232], 7.95 nM.
To `Cc1ncc(NCC2CCOCC2)nc1-c1cc(N[C@H]2CC[C@H](N)CC2)ncc1Cl` [Compound 233, trans-N1-(5-chloro-4-(3-methyl-6-((tetrahydro-2H-pyran-4-yl)methyl)aminopyrazin-2-yl)pyridin-2-yl)cyclohexane-1,4-diamine] belongs 7.95 nM; to `CCc1ncc(-c2cc(N[C@H]3CC[C@H](N)CC3)ncc2Cl)nc1NCC1CCOCC1` [Compound 241, trans-N^1-(5-chloro-4-(5-ethyl-6-((tetrahydro-2H-pyran-4-yl)methyl)aminopyrazin-2-yl)pyridin-2-yl)cyclohexane-1,4-diamine], 61.8 nM; to `OC[C@H]1CC[C@H](Nc2cc(-c3cncc(NCC4CCOCC4)n3)c(Cl)cn2)CC1` [Compound 242], 15.4 nM.
With `COCCN[C@H]1CC[C@H](Nc2cc(-c3cncc(NCC4CCOCC4)n3)c(Cl)cn2)CC1` [Compound 243, trans-N1-(5-chloro-4-(6-((tetrahydro-2H-pyran-4-yl)methyl)aminopyrazin-2-yl)pyridin-2-yl)-N4-(2-methoxyethyl)cyclohexane-1,4-diamine], the IC50 turned out to be 7.95 nM.
Consider `CC(=O)N[C@H]1CC[C@H](Nc2cc(-c3cncc(NCC4CCOCC4)n3)c(Cl)cn2)CC1` [Compound 244, N-(trans-4-(5-chloro-4-(6-((tetrahydro-2H-pyran-4-yl)methyl)aminopyrazin-2-yl)pyridin-2-yl-amino)cyclohexyl)acetamide], for which half-maximal inhibition (IC50) required 79 nM.
`CS(=O)(=O)N[C@H]1CC[C@H](Nc2cc(-c3cncc(NCC4CCOCC4)n3)c(Cl)cn2)CC1` [Compound 245] had a half-inhibitory concentration (IC50) of 53.4 nM.
Take `NC[C@H]1CC[C@H](Nc2cc(-c3cncc(NCC4CCOCC4)n3)c(Cl)cn2)CC1` [Compound 246]: the IC50 was 11.5 nM.
`CC(=O)NC[C@H]1CC[C@H](Nc2cc(-c3cncc(NCC4CCOCC4)n3)c(Cl)cn2)CC1` [Compound 247] had a 50% inhibitory concentration (IC50) of 20.2 nM.
On to `CN(CC1CCOCC1)c1cncc(-c2cc(N[C@H]3CC[C@H](N)CC3)ncc2Cl)n1` [Compound 248], for which half-maximal inhibition (IC50) was put at 10.6 nM.
On to `CN(CC1CCOCC1)c1cncc(-c2cc(N[C@H]3CC[C@H](CN)CC3)ncc2Cl)n1` [Compound 249, 6-(2-(trans-4-(aminomethyl)cyclohexylamino)-5-chloropyridin-4-yl)-N-methyl-N-((tetrahydro-2H-pyran-4-yl)methyl)pyrazin-2-amine], for which the IC50 came out at 31.8 nM.
In turn, `CN(CC1CCOCC1)c1cncc(-c2cc(N[C@H]3CC[C@H](O)CC3)ncc2Cl)n1` [Compound 250] yielded an IC50 of 28.4 nM.
To `CN(CC1CCOCC1)c1cncc(-c2cc(N[C@H]3CC[C@H](CO)CC3)ncc2Cl)n1` [Compound 251] belongs 43.2 nM.
`COCCN[C@H]1CC[C@H](Nc2cc(-c3cncc(N(C)CC4CCOCC4)n3)c(Cl)cn2)CC1` [Compound 252] displayed an IC50 of 7.94 nM.
To `N[C@H]1CC[C@H](Nc2cc(-c3nc(NCC4CCOCC4)ccc3Cl)c(Cl)cn2)CC1` [Compound 253, N2′-(trans-4-aminocyclohexyl)-3,5′-dichloro-N6-((tetrahydro-2H-pyran-4-yl)methyl)-2,4′-bipyridine-2′,6-diamine] belongs 7.94 nM; to `CS(=O)(=O)CCN[C@H]1CC[C@H](Nc2cc(-c3nc(NCC4CCOCC4)ccc3Cl)c(Cl)cn2)CC1` [Compound 254, 3,5′-dichloro-N2′-(trans-4-(2-(methylsulfonyl)ethylamino)cyclohexyl)-N6-((tetrahydro-2H-pyran-4-yl)methyl)-2,4′-bipyridine-2′,6-diamine], 8.33 nM.
To `N[C@H]1CC[C@H](Nc2cc(-c3nc(NCC4CCOCC4)cnc3C(F)(F)F)c(Cl)cn2)CC1` [Compound 255, trans-N1-(5-chloro-4-(6-((tetrahydro-2H-pyran-4-yl)methyl)amino-3-(trifluoromethyl)pyrazin-2-yl)pyridin-2-yl)cyclohexane-1,4-diamine] belongs 42.3 nM; to `COCCN[C@H]1CC[C@H](Nc2cc(-c3nc(NCC4CCOCC4)ccc3Cl)c(Cl)cn2)CC1` [Compound 258, 3,5′-dichloro-N2′-(trans-4-(2-methoxyethylamino)cyclohexyl)-N6-((tetrahydro-2H-pyran-4-yl)methyl)-2,4′-bipyridine-2′,6-diamine], 7.94 nM; to `OCCN[C@H]1CC[C@H](Nc2cc(-c3nc(NCC4CCOCC4)ccc3Cl)c(Cl)cn2)CC1` [Compound 259, 2-(trans-4-(3,5′-dichloro-6-((tetrahydro-2H-pyran-4-yl)methyl)amino-2,4′-bipyridin-2′-yl-amino)cyclohexylamino)ethanol], 7.94 nM.
To `N[C@H]1CC[C@H](Nc2cc(-c3nc(NCC4CCOCC4)ccc3Cl)c(F)cn2)CC1` [Compound 260, N2′-(trans-4-aminocyclohexyl)-3-chloro-5′-fluoro-N6-((tetrahydro-2H-pyran-4-yl)methyl)-2,4′-bipyridine-2′,6-diamine] belongs 7.94 nM; to `N[C@H]1CC[C@H](Nc2cc(-c3cncc(NC[C@H]4CCCOC4)n3)c(Cl)cn2)CC1` [Compound 261], 7.94 nM.
As for `N[C@H]1CC[C@H](Nc2cc(-c3cncc(NC[C@@H]4CCCOC4)n3)c(Cl)cn2)CC1` [Compound 262], the midpoint of inhibition, the IC50, lay at 7.94 nM.
To `O[C@H]1CC[C@H](Nc2cc(-c3cncc(NC[C@H]4CCCOC4)n3)c(Cl)cn2)CC1` [Compound 263] belongs 7.94 nM; to `O[C@H]1CC[C@H](Nc2cc(-c3cncc(NC[C@@H]4CCCOC4)n3)c(Cl)cn2)CC1` [Compound 264], 7.94 nM; to `N[C@H]1CC[C@H](Nc2cc(-c3nc(NCC4CCOCC4)c(Cl)cc3Cl)c(Cl)cn2)CC1` [Compound 266, N2′-(trans-4-aminocyclohexyl)-3,5,5′-trichloro-N6-((tetrahydro-2H-pyran-4-yl)methyl)-2,4′-bipyridine-2′,6-diamine], 7.94 nM.
To `N[C@H]1CC[C@H](Nc2cc(-c3ccc(F)c(NCC4CCOCC4)n3)c(Cl)cn2)CC1` [Compound 269, N2′-(trans-4-aminocyclohexyl)-5′-chloro-5-fluoro-N6-((tetrahydro-2H-pyran-4-yl)methyl)-2,4′-bipyridine-2′,6-diamine] belongs 7.95 nM; to `Clc1cnc(N[C@H]2CC[C@H](NCC3COCCO3)CC2)cc1-c1nc(NCC2CCOCC2)ccc1Cl` (stereo partly shown) [Compound 271], 7.94 nM.
To `COCCN(C)[C@H]1CC[C@H](Nc2cc(-c3nc(NCC4CCOCC4)ccc3Cl)c(Cl)cn2)CC1` [Compound 272, 3,5′-dichloro-N2′-(trans-4-((2-methoxyethyl)(methyl)amino)cyclohexyl)-N6-((tetrahydro-2H-pyran-4-yl)methyl)-2,4′-bipyridine-2′,6-diamine] belongs 7.94 nM; to `Clc1ccc(NCC2CCOCC2)nc1-c1ccnc(N[C@H]2CC[C@H](NC[C@H]3CCCO3)CC2)c1` [Compound 273], 22.9 nM.
The compound `COCCN[C@H]1CC[C@H](Nc2cc(-c3nc(NCC4CCOCC4)ccc3Cl)ccn2)CC1` [Compound 274] yielded a 50% inhibitory concentration (IC50) of 37.8 nM.
`O[C@H]1CC[C@@H](Nc2cc(-c3cccc(NCC4CCOCC4)n3)c(Cl)cn2)CC1` [Compound 275] returned a concentration for half-maximal inhibition (IC50) of 146 nM.
The compound `COCCN[C@H]1CC[C@H](Nc2cc(-c3cccc(NCC4CCOCC4)n3)c(Cl)cn2)CC1` [Compound 276] gave an IC50 of 8.93 nM.
To `Clc1cnc(N[C@H]2CC[C@H](NC[C@H]3CCCO3)CC2)cc1-c1cccc(NCC2CCOCC2)n1` [Compound 277] belongs 7.94 nM.
`Clc1cnc(N[C@H]2CC[C@H](NC[C@@H]3CCCO3)CC2)cc1-c1cccc(NCC2CCOCC2)n1` [Compound 278] returned an IC50 of 7.94 nM.
To `COCCN(C)[C@H]1CC[C@H](Nc2cc(-c3cccc(NCC4CCOCC4)n3)c(Cl)cn2)CC1` [Compound 279] belongs 13.1 nM; to `Fc1ccc(-c2cc(N[C@H]3CC[C@H](NC4COC4)CC3)ncc2Cl)nc1NCC1CCOCC1` [Compound 281], 61.2 nM.
Compound `C[C@@H]1CC(CNc2cccc(-c3cc(N[C@H]4CC[C@H](N)CC4)ncc3Cl)n2)C[C@H](C)O1` (stereo partly drawn) [Compound 284, N2′-(trans-4-aminocyclohexyl)-5′-chloro-N6-(((2R,6S)-2,6-dimethyltetrahydro-2H-pyran-4-yl)methyl)-2,4′-bipyridine-2′,6-diamine] gave an IC50 of 1 nM.
In the case of `COCCN[C@H]1CC[C@H](Nc2cc(-c3cccc(NCC4C[C@@H](C)O[C@@H](C)C4)n3)c(Cl)cn2)CC1` (stereo partly drawn) [Compound 285, 5′-chloro-N6-(((2R,6S)-2,6-dimethyltetrahydro-2H-pyran-4-yl)methyl)-N2′-(trans-4-(2-methoxyethylamino)cyclohexyl)-2,4′-bipyridine-2′,6-diamine], the midpoint of inhibition, the IC50, lay at 2 nM.
`N[C@H]1CC[C@H](Nc2cc(-c3nc(NCC4CCOCC4)ccc3Br)c(Cl)cn2)CC1` [Compound 286, N2′-(trans-4-aminocyclohexyl)-3-bromo-5′-chloro-N6-((tetrahydro-2H-pyran-4-yl)methyl)-2,4′-bipyridine-2′,6-diamine] returned a concentration for half-maximal inhibition (IC50) of 1 nM.
